Assay results published in patent US6605606B1, “Solid forms of tin ethyl etiopurpurin and processes for producing such forms” (Miravant Pharmaceuticals, Inc., priority 2000, dated 2003).

Columns and labels:
[1] = Light stability of SnET2 solid forms under visible light irradiation (XRPD and HPLC); assay type: physicochemical; conditions: for XRPD Result / Impurity Levels by HPLC Peak 1 (photooxidized product) / Impurity Levels by HPLC Peak 2 / Impurity Levels by HPLC Peak 3: solid
Procedure: Comparative stability studies were performed on crystalline Form I, crystalline Form II, disordered Form II and the amorphous form. Light stability studies were carried out in a closed, black 30×16×12 inch cabinet containing two 24-inch, 20-watt fluorescent bulbs as the light source. The samples were placed approximately 10 inches from the bulbs. Each sample consisted of approximately 30-mg of SnET2 in a 1-dram vial. Samples were removed at the time intervals indicated in Table 11, analyzed by XRPD and HPLC.

[2] = Relative thermodynamic stability of crystalline forms (slurry interconversion, XRPD); assay type: physicochemical; conditions: slurrying in dichloromethane, acetone and mixtures, ambient or 50° C.
Text: Unsolvated, anhydrous, polymorphic forms of a compound differ in their free energies. A set of polymorphs may be ranked in order of thermodynamic stability under a given set of pressure and temperature conditions. […] Production of the stable form is said to occur under thermodynamic conditions. […] Phys. Chem. 22:306 (1897)]. […] Kinetic and thermodynamic conditions differ in the amount of energy utilized. While the absolute amount depends on the compound in question, relatively speaking, kinetic conditions involve lower temperatures and shorter reaction times while thermodynamic conditions involve higher temperatures and longer reaction times.
Under subdued lighting, a slurry containing a 1:1 mixture of SnET2 crystalline Form I and SnET2 crystalline Form II (100-200 mg each) in 1-3 mL of a solvent, listed in Table 13 below, was agitated in a tightly-capped tube at ambient temperature or at 50° C. The undissolved solid was collected by filtration and found, by XRPD analysis, to be crystalline Form II.

[3] = visible light (two 20-watt fluorescent bulbs, approx. 10 inches), 0 days
[4] = visible light irradiation, 0 days
[5] = visible light irradiation, 2 days
[6] = visible light irradiation, 4 days
[7] = visible light irradiation, 6 days
[8] = visible light irradiation, 8 days
[9] = visible light irradiation, 19 days
[10] = visible light irradiation, 29 days

Substance: Tin ethyl etiopurpurin [Amorphous]
- rate of photoproduct formation by HPLC ([1]; exposed to visible light, compared with the other solid forms): produced more rapidly in the amorphous form than any other form
- XRPD Result [1, 3]: Amorphous
- Impurity Levels by HPLC Peak 1 (photooxidized product) [1, 4]: 1.62
- Impurity Levels by HPLC Peak 2 [1, 4]: 0.70
- Impurity Levels by HPLC Peak 3 [1, 4]: 0.00
- Impurity Levels by HPLC Peak 1 (photooxidized product) [1, 5]: 6.60
- Impurity Levels by HPLC Peak 2 [1, 5]: 0.71
- Impurity Levels by HPLC Peak 3 [1, 5]: 0.03
- XRPD Result [1, 5]: Amorphous
- Impurity Levels by HPLC Peak 1 (photooxidized product) [1, 6]: 9.78
- Impurity Levels by HPLC Peak 2 [1, 6]: 0.73
- Impurity Levels by HPLC Peak 3 [1, 6]: 0.15
- XRPD Result [1, 6]: Amorphous
- Impurity Levels by HPLC Peak 1 (photooxidized product) [1, 7]: 1.84
- Impurity Levels by HPLC Peak 2 [1, 7]: 0.11
- Impurity Levels by HPLC Peak 3 [1, 7]: 0.23
- XRPD Result [1, 7]: Amorphous
- Impurity Levels by HPLC Peak 1 (photooxidized product) [1, 8]: 12.66
- Impurity Levels by HPLC Peak 2 [1, 8]: 0.70
- Impurity Levels by HPLC Peak 3 [1, 8]: 0.27
- XRPD Result [1, 8]: Amorphous
- Impurity Levels by HPLC Peak 1 (photooxidized product) [1, 9]: 14.13
- Impurity Levels by HPLC Peak 2 [1, 9]: 0.73
- Impurity Levels by HPLC Peak 3 [1, 9]: 0.38
- XRPD Result [1, 9]: Amorphous
- Impurity Levels by HPLC Peak 1 (photooxidized product) [1, 10]: 18.72
- Impurity Levels by HPLC Peak 2 [1, 10]: 0.76
- Impurity Levels by HPLC Peak 3 [1, 10]: 0.38
- XRPD Result [1, 10]: Amorphous

Substance: Tin ethyl etiopurpurin [Crystalline Form II]
- XRPD Result [1, 3]: Crystalline
- Impurity Levels by HPLC Peak 1 (photooxidized product) [1, 4]: 0.00
- Impurity Levels by HPLC Peak 2 [1, 4]: 0.23
- Impurity Levels by HPLC Peak 3 [1, 4]: 0.00
- Impurity Levels by HPLC Peak 1 (photooxidized product) [1, 5]: 0.44
- Impurity Levels by HPLC Peak 2 [1, 5]: 0.23
- Impurity Levels by HPLC Peak 3 [1, 5]: 0.04
- XRPD Result [1, 5]: Crystalline
- Impurity Levels by HPLC Peak 1 (photooxidized product) [1, 6]: 0.56
- Impurity Levels by HPLC Peak 2 [1, 6]: 0.24
- Impurity Levels by HPLC Peak 3 [1, 6]: 0.09
- XRPD Result [1, 6]: Crystalline
- Impurity Levels by HPLC Peak 1 (photooxidized product) [1, 7]: 0.82
- Impurity Levels by HPLC Peak 2 [1, 7]: 0.21
- Impurity Levels by HPLC Peak 3 [1, 7]: 0.10
- XRPD Result [1, 7]: Crystaliine
- Impurity Levels by HPLC Peak 1 (photooxidized product) [1, 8]: 0.96
- Impurity Levels by HPLC Peak 2 [1, 8]: 0.21
- Impurity Levels by HPLC Peak 3 [1, 8]: 0.15
- XRPD Result [1, 8]: Crystalline
- Impurity Levels by HPLC Peak 1 (photooxidized product) [1, 9]: 1.12
- Impurity Levels by HPLC Peak 2 [1, 9]: 0.18
- Impurity Levels by HPLC Peak 3 [1, 9]: 0.14
- XRPD Result [1, 9]: Crystalline
- Impurity Levels by HPLC Peak 1 (photooxidized product) [1, 10]: 1.68
- Impurity Levels by HPLC Peak 2 [1, 10]: 0.17
- Impurity Levels by HPLC Peak 3 [1, 10]: 0.11
- XRPD Result [1, 10]: Crystalline
- relative (thermodynamic) stability of crystalline forms [2]: thermodynamically more stable form
- relative (thermodynamic) stability of crystalline forms ([2]; listed as crystalline Form II): more stable than crystalline Form I

Substance: Tin ethyl etiopurpurin [Crystalline Form I]
- XRPD Result [1, 3]: Crystalline
- Impurity Levels by HPLC Peak 1 (photooxidized product) [1, 4]: 0.20
- Impurity Levels by HPLC Peak 2 [1, 4]: 0.15
- Impurity Levels by HPLC Peak 3 [1, 4]: 0.0
- Impurity Levels by HPLC Peak 1 (photooxidized product) [1, 5]: 0.89
- Impurity Levels by HPLC Peak 2 [1, 5]: 0.16
- Impurity Levels by HPLC Peak 3 [1, 5]: 0.0
- XRPD Result [1, 5]: Crystalline
- Impurity Levels by HPLC Peak 1 (photooxidized product) [1, 6]: 9.61
- Impurity Levels by HPLC Peak 2 [1, 6]: 0.84
- Impurity Levels by HPLC Peak 3 [1, 6]: 0.0
- XRPD Result [1, 6]: Crystalline
- Impurity Levels by HPLC Peak 1 (photooxidized product) [1, 7]: 2.16
- Impurity Levels by HPLC Peak 2 [1, 7]: 0.14
- Impurity Levels by HPLC Peak 3 [1, 7]: 0.09
- XRPD Result [1, 7]: Crystalline
- Impurity Levels by HPLC Peak 1 (photooxidized product) [1, 8]: 1.87
- Impurity Levels by HPLC Peak 2 [1, 8]: 0.15
- Impurity Levels by HPLC Peak 3 [1, 8]: 0.13
- XRPD Result [1, 8]: Crystalline
- Impurity Levels by HPLC Peak 1 (photooxidized product) [1, 9]: 2.39
- Impurity Levels by HPLC Peak 2 [1, 9]: 0.34
- Impurity Levels by HPLC Peak 3 [1, 9]: 0.17
- XRPD Result [1, 9]: Crystalline
- Impurity Levels by HPLC Peak 1 (photooxidized product) [1, 10]: 4.47
- Impurity Levels by HPLC Peak 2 [1, 10]: 0.11
- Impurity Levels by HPLC Peak 3 [1, 10]: 0.21
- XRPD Result [1, 10]: Crystalline

Substance: Tin ethyl etiopurpurin [Disordered Form II]
- XRPD Result [1, 3]: Disordered FII
- Impurity Levels by HPLC Peak 1 (photooxidized product) [1, 4]: 0.65
- Impurity Levels by HPLC Peak 2 [1, 4]: 0.10
- Impurity Levels by HPLC Peak 3 [1, 4]: 0.19
- Impurity Levels by HPLC Peak 1 (photooxidized product) [1, 5]: 1.24
- Impurity Levels by HPLC Peak 2 [1, 5]: 0.13
- Impurity Levels by HPLC Peak 3 [1, 5]: 0.19
- XRPD Result [1, 5]: Disordered FII
- Impurity Levels by HPLC Peak 1 (photooxidized product) [1, 6]: 1.98
- Impurity Levels by HPLC Peak 2 [1, 6]: 0.09
- Impurity Levels by HPLC Peak 3 [1, 6]: 0.27
- XRPD Result [1, 6]: Disordered FII
- Impurity Levels by HPLC Peak 1 (photooxidized product) [1, 7]: 2.51
- Impurity Levels by HPLC Peak 2 [1, 7]: 0.11
- Impurity Levels by HPLC Peak 3 [1, 7]: 0.28
- XRPD Result [1, 7]: Disordered FII
- Impurity Levels by HPLC Peak 1 (photooxidized product) [1, 8]: 1.77
- Impurity Levels by HPLC Peak 2 [1, 8]: 0.12
- Impurity Levels by HPLC Peak 3 [1, 8]: 0.28
- XRPD Result [1, 8]: Disordered FII
- Impurity Levels by HPLC Peak 1 (photooxidized product) [1, 9]: 3.54
- Impurity Levels by HPLC Peak 2 [1, 9]: 0.06
- Impurity Levels by HPLC Peak 3 [1, 9]: 0.32
- XRPD Result [1, 9]: Disordered FII
- Impurity Levels by HPLC Peak 1 (photooxidized product) [1, 10]: 4.92
- Impurity Levels by HPLC Peak 2 [1, 10]: 0.10
- Impurity Levels by HPLC Peak 3 [1, 10]: 0.51
- XRPD Result [1, 10]: Disordered FII
